Measurements taken from PubChem BioAssay AID2423 (Broad Institute, 2010).
Inconclusive results are not listed. The source made the active and inactive calls. No rule for the calls is given here.

system: C. albicans CaCi-8 + fluconazole, Alamar Blue growth, 48 h; experiment: resistant C. albicans growth inhibition with fluconazole, dose response, CaCi-8 strain, Alamar Blue fluorescence (AID 2423)

In order of rising EC50:
1. C[C@@H]1C[C@@H]2O[C@H]2/C=C\C=C\C(=O)Cc2c(Cl)c(O)cc(O)c2C(=O)O1  234 nM
2. O=C(N/N=C/c1c(O)ccc2ccccc12)c1cccc(C(F)(F)F)c1  242 nM
3. COc1ccccc1NC1=C(N2CCCCC2)C(=O)c2ccccc2C1=O  245 nM
4. CCc1cc(-c2n[nH]c(=S)n2-c2ccccc2C)cs1  415 nM
5. Cc1ccc(C(=O)O/N=C/c2c(N3CCOCC3)n(C)c3ccccc23)cc1  623 nM
6. CCC(=O)NC(c1cccs1)c1cc([N+](=O)[O-])c2cccnc2c1O (stereo not drawn)  633 nM
7. O=C(c1cc(-c2ccccc2)n[nH]1)N1CCc2c([nH]c3ccccc23)C1c1ccccn1 (stereo not drawn)  692 nM
8. O=C(c1ccc(Cn2c(=S)[nH]c3ccccc3c2=O)cc1)N1CCN(c2ccccn2)CC1  695 nM
9. Nc1[nH]c(=O)ncc1F  711 nM
10. CC(C)C(=O)NC(c1cccs1)c1cc([N+](=O)[O-])c2cccnc2c1O (stereo not drawn)  778 nM
11. Oc1ccc(N=Nc2ccc3c(c2)OCCO3)c2cccnc12  804 nM
12. CCC(=O)N1CCN(c2ccc(Cl)cc2NC(=O)c2ccc3c(c2)OCCO3)CC1  811 nM
13. Cc1cc(C(=O)Nc2sc3c(c2C#N)CCCC3)no1  979 nM
14. CCn1c(C)nc2cc(C(=O)N/N=C/c3ccc(O)c(O)c3O)ccc21  989 nM
15. CCC(=O)N1c2ccc(S(=O)(=O)CCC(=O)N3CCn4c3nc3ccccc34)cc2CC1C (stereo not drawn)  1120 nM
16. COc1cc(/C=C(\C#N)c2nc3ccccc3[nH]2)ccc1O  1490 nM
17. CCN(CC)S(=O)(=O)c1cc(OC)ccc1N=Nc1ccc(O)c2ncccc12  1560 nM
18. Cc1cc(/C=N/n2c(COc3ccccc3C)nc3ccccc3c2=O)c(O)c([N+](=O)[O-])c1  1620 nM
19. O=C(Nc1nc2ccc(SC(F)F)cc2s1)c1ccc(NS(=O)(=O)c2ccc(F)c(F)c2)cc1  1640 nM
20. O=[N+]([O-])c1ccc(O)c(/C=N/Nc2ccc(Cl)nn2)c1  1800 nM
21. COCCSc1nnc(NC(=O)CCS(=O)(=O)c2ccccc2)s1  1860 nM
22. Cc1ccc2cc(C3C(C#N)=C(N)Oc4c3ccc3cccnc43)c(=O)[nH]c2c1 (stereo not drawn)  1900 nM
23. Oc1c(C(Nc2nc3ccccc3s2)c2ccco2)ccc2cccnc12 (stereo not drawn)  1980 nM
24. S=C(Nc1ccccc1)Nc1nc2ccccc2n1CCOc1ccccc1  2000 nM
25. Oc1c(C(Nc2cccc(C(F)(F)F)c2)c2cccnc2)ccc2cccnc12 (stereo not drawn)  2070 nM
26. CCNC(=S)NNC(=O)c1cc(-c2cccc(C)c2)nc2ccccc12  2270 nM
27. Cc1ccc(Nc2nc(Cl)nc(NC(C)(C)C)n2)cc1  2620 nM
28. COc1ccc(/C=C(/NC(=O)c2ccccc2)c2nc3ccc(Cl)cc3[nH]2)cc1OC  2660 nM
29. Cc1ccc(C2CC2C(=O)NNC(=S)Nc2cccc(Cl)c2)cc1 (stereo not drawn)  3320 nM
30. COc1ccc2c(c1)c(/C=C/c1cc[n+](C)cc1)cn2C  5950 nM
31. Cc1ccc(/C=N/NC(=O)c2c(-c3ccccc3)noc2C)c(O)c1  6160 nM
32. CCCc1ccc(Oc2cn[nH]c2-c2ccc(O)cc2O)cc1  8050 nM
33. CC1Oc2cc3oc4c(O)c(O)ccc4c(=O)c3c(O)c2C1(C)C (stereo not drawn)  14400 nM
34. Cc1nc(NC(=O)c2c(-c3ccccc3)noc2C)sc1C(=O)N(C)C  16300 nM

In the case of `CCCCCc1ccc(OCCCC[n+]2ccc(C)cc2)c(CCCCC)c1`, the EC50 is reported as > 16000 nM (inactive).
With `Cc1ccc(C(=O)NC(=S)NNC(=O)c2ccccc2[N+](=O)[O-])cc1` the EC50 was > 15000 nM (inactive).
In the case of `CC1CCc2c(sc3ncnc(N4CCOCC4)c23)C1` (stereo not drawn), the EC50 is reported as > 16000 nM (inactive).
`O=C(Cc1ccc(O)cc1)N/N=C/c1cccnc1` was tested, and the EC50 was > 16000 nM (inactive).
For `CN1C(=O)/C(=C/c2cn(CC(=O)N3CCCCC3)c3ccccc23)NC1=S`, the EC50 was > 15000 nM (inactive).
In the case of `COc1cnc(-c2ccccn2)nc1Sc1ccccc1Cl`, the EC50 is reported as > 15000 nM (inactive).
With `CCCCNC(=O)/C(=C\c1ccc([N+](=O)[O-])o1)NC(=O)c1ccccc1` the EC50 was > 15000 nM (inactive).
For `CCOc1ccc2c(c1)C(C)=CC(C)(C)N2S(=O)(=O)c1ccc(C)cc1`, the EC50 was > 16000 nM (inactive).
With `CC(=O)c1ccc(NC(=O)Nc2cccc3ccccc23)cc1` the EC50 was > 15000 nM (inactive).
